{"source": "PubChem BioAssay AID2060900", "about": "(Molecular Pharmacology Branch, DTP, NCI, 2025);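 note: compound exposure lasted seven days before the viability read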;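 for viability, T/C: spheroids also contain HUVEC endothelial cells and mesenchymal stem cells as stroma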", "test_system": "521955-158-R2-J5-PDC complex spheroids, viability", "experiment": "Anticancer human tumor 521955-158-R2-J5-PDC patient-derived pancreatic carcinoma cell line growth inhibition [RAS]", "conditions": "for IC50: curve of first compound; for viability, T/C: stronger effect = lower value", "text": "RAS pathway inhibitors in Combinations in Complex Spheroids\nA high-throughput screen of multi-cell type tumor spheroids was designed to identify active combinations of RAS pathway inhibitors and targeted small molecules. Complex spheroids include a stromal component modeled by human endothelial cells (HUVEC) and fibroblasts modeled by human mesenchymal stem cells (MSCs). The concentration ranges selected for each drug and investigational agent were based upon clinically achievable concentrations if the clinical Cmax of the agent was known.\nCompounds. The drugs and investigational agents: abemaciclib (NSC768073), cobimetinib (NSC768068), divarasib (GDC6063, NSC841802), docetaxel (NSC628503), GDC-1971 (RLY-1971, NSC841576), gemcitabine (NSC613327), inavolisib (NSC800729), ipatasertib (NSC767898), KB-0742 (NSC834161), MRTX-1133 (NSC836407), osimertinib (NSC779217), RMC-4630 (NSC839698), RMC-6236 (NSC851965), RMC-6291 (NSC852671), Ro-3306 (NSC812927), sapanisertib (NSC764658), SN-38 (NSC673596), staurosporine (NSC755774), SY5609 (NSC837396), and tovorafenib (DAY101, NSC766906), were obtained from the National Cancer Institute (NCI) Developmental Therapeutics Program Chemical Repository. The FDA-approved anticancer drug set is available from the NCI Developmental Therapeutics Program. […] The stock solutions were prepared in dimethyl sulfoxide (DMSO, Sigma-Aldrich, St. Louis, MO, cat. D2650) at 800-fold the tested concentration and stored at -70 degrees C prior to their use. All drugs and investigational agents were tested over a range starting from a high concentration at or near the clinical Cmax and decreasing in half-log increments. If the clinical Cmax for an agent had not been determined, the highest concentration tested was 10 microM.\nCell Culture. All cells were maintained in an incubator at 37 degrees C and 5% CO2 with 95% humidity. The PDC lines were cultured according to standard operating procedures established by the NCI PDMR. All PDCs were thawed and cultured in Matrigel-coated flasks prepared with a working solution of 1X Ham's F-12 nutrient mix, without supplementation (Invitrogen, Waltham, MA, cat. 11765054), 100 U/mL penicillin-streptomycin (Invitrogen, cat. 15140122), and 2.5% Matrigel (Corning Inc., Corning, NY, cat. 354248) for the first three passages. The 362531-283-R-J2-PDC and 782815-120-R-J1-PDC lines were cultured in 6C/Colon 1B media, which includes advanced DMEM/F-12 (Thermo Fisher Scientific, cat. 12634028), 10 mM HEPES (Thermo Fisher Scientific, cat. 15630080), 1X GlutaMAX supplement (Thermo Fisher Scientific, cat. 35050061), 0.1 mg/mL primocin (InvivoGen, San Diego, CA, cat. ant-pm-2), 10% defined fetal bovine serum, heat inactivated (HyClone Laboratories Inc., Logan, UT, cat. SH30070.03HI), 50% L-WRN conditioned media (ATCC, cat. CRL-3276), 1.25 mM N-Acetyl-L-cysteine (Sigma-Aldrich, cat. A9165), 10 mM nicotinamide (Sigma-Aldrich, cat. N0636), 1X B-27 supplement (Thermo Fisher Scientific, cat. 17504044), 1X N-2 supplement (Thermo Fisher Scientific, cat. 17502048), 50 ng/mL human EGF (Thermo Fisher Scientific, cat. PHG0311), and 10 microM Y-27632 dihydrochloride (Tocris Bioscience, cat. 1254). The K12877-001-R-J1-PDC line was cultured in 6I media, which includes all 6C/Colon 1B media plus 10 ng/mL human FGF-10 (PeproTech, cat. 100-26), 1 ng/mL human FGF-2 (PeproTech, cat. 100-18B), 1 µM prostaglandin E2 (Tocris Bioscience, cat. 2296), […] hydrocortisone (Sigma-Aldrich, cat. H4001), and […] bovine insulin (Sigma-Aldrich, cat. I6634). The K86415-001-R-J1-PDC line was cultured in 6D media, which includes all 6C/Colon 1B media components minus the L-WRN conditioned media. The 485176-168-R4-J1-PDC was cultured in PANC media, which includes all 6C/Colon 1B media plus 100 ng/mL human FGF-10 (PeproTech, cat. 100-26), 500 nM SB-431542 (Selleckchem, cat. S1067), and 10 nM gastrin (Tocris Bioscience, cat. 3006). […]"}
{"smiles": "CC(C)n1nc(-c2ccc3oc(N)nc3c2)c2c(N)ncnc21", "note": "+ C=CC(=O)N1CCN(c2nc(OCC3CCCN3C)nc3c(F)c(-c4nc(N)cc(C)c4C(F)(F)F)c(Cl)cc23)C(C)C1", "values": [{"measurement": "IC50", "setting": "second compound 0.00316 µM", "value": 0.0255, "unit": "µM"}, {"measurement": "IC50", "setting": "second compound 0.01 µM", "value": 0.0312, "unit": "µM"}, {"measurement": "IC50", "setting": "second compound 0.0316 µM", "value": 0.0257, "unit": "µM"}, {"measurement": "IC50", "setting": "second compound 0.1 µM", "value": 0.0263, "unit": "µM"}, {"measurement": "IC50", "setting": "second compound 0.316 µM", "value": 0.0222, "unit": "µM"}, {"measurement": "IC50", "setting": "second compound 1 µM", "value": 0.0273, "unit": "µM"}, {"measurement": "viability, T/C", "setting": "second compound 0.00316 µM, first compound 0.000316 µM", "value": 103, "unit": "%"}, {"measurement": "viability, T/C", "setting": "second compound 0.00316 µM, first compound 0.001 µM", "value": 77.8, "unit": "%"}, {"measurement": "viability, T/C", "setting": "second compound 0.00316 µM, first compound 0.00316 µM", "value": 95.7, "unit": "%"}, {"measurement": "viability, T/C", "setting": "second compound 0.00316 µM, first compound 0.01 µM", "value": 79.1, "unit": "%"}, {"measurement": "viability, T/C", "setting": "second compound 0.00316 µM, first compound 0.0316 µM", "value": 43.5, "unit": "%"}, {"measurement": "viability, T/C", "setting": "second compound 0.00316 µM, first compound 0.1 µM", "value": 34.5, "unit": "%"}, {"measurement": "viability, T/C", "setting": "second compound 0.01 µM, first compound 0.000316 µM", "value": 93.8, "unit": "%"}, {"measurement": "viability, T/C", "setting": "second compound 0.01 µM, first compound 0.001 µM", "value": 113, "unit": "%"}, {"measurement": "viability, T/C", "setting": "second compound 0.01 µM, first compound 0.00316 µM", "value": 95.9, "unit": "%"}, {"measurement": "viability, T/C", "setting": "second compound 0.01 µM, first compound 0.01 µM", "value": 88, "unit": "%"}, {"measurement": "viability, T/C", "setting": "second compound 0.01 µM, first compound 0.0316 µM", "value": 49.3, "unit": "%"}, {"measurement": "viability, T/C", "setting": "second compound 0.01 µM, first compound 0.1 µM", "value": 29.5, "unit": "%"}, {"measurement": "viability, T/C", "setting": "second compound 0.0316 µM, first compound 0.000316 µM", "value": 76, "unit": "%"}, {"measurement": "viability, T/C", "setting": "second compound 0.0316 µM, first compound 0.001 µM", "value": 134, "unit": "%"}, {"measurement": "viability, T/C", "setting": "second compound 0.0316 µM, first compound 0.00316 µM", "value": 87.1, "unit": "%"}, {"measurement": "viability, T/C", "setting": "second compound 0.0316 µM, first compound 0.01 µM", "value": 93.7, "unit": "%"}, {"measurement": "viability, T/C", "setting": "second compound 0.0316 µM, first compound 0.0316 µM", "value": 40.5, "unit": "%"}, {"measurement": "viability, T/C", "setting": "second compound 0.0316 µM, first compound 0.1 µM", "value": 29.7, "unit": "%"}, {"measurement": "viability, T/C", "setting": "second compound 0.1 µM, first compound 0.000316 µM", "value": 141, "unit": "%"}, {"measurement": "viability, T/C", "setting": "second compound 0.1 µM, first compound 0.001 µM", "value": 141, "unit": "%"}, {"measurement": "viability, T/C", "setting": "second compound 0.1 µM, first compound 0.00316 µM", "value": 109, "unit": "%"}, {"measurement": "viability, T/C", "setting": "second compound 0.1 µM, first compound 0.01 µM", "value": 79.7, "unit": "%"}, {"measurement": "viability, T/C", "setting": "second compound 0.1 µM, first compound 0.0316 µM", "value": 42.6, "unit": "%"}, {"measurement": "viability, T/C", "setting": "second compound 0.1 µM, first compound 0.1 µM", "value": 31.3, "unit": "%"}, {"measurement": "viability, T/C", "setting": "second compound 0.316 µM, first compound 0.000316 µM", "value": 141, "unit": "%"}, {"measurement": "viability, T/C", "setting": "second compound 0.316 µM, first compound 0.001 µM", "value": 134, "unit": "%"}, {"measurement": "viability, T/C", "setting": "second compound 0.316 µM, first compound 0.00316 µM", "value": 91.3, "unit": "%"}, {"measurement": "viability, T/C", "setting": "second compound 0.316 µM, first compound 0.01 µM", "value": 68.9, "unit": "%"}, {"measurement": "viability, T/C", "setting": "second compound 0.316 µM, first compound 0.0316 µM", "value": 42.9, "unit": "%"}, {"measurement": "viability, T/C", "setting": "second compound 0.316 µM, first compound 0.1 µM", "value": 33.4, "unit": "%"}, {"measurement": "viability, T/C", "setting": "second compound 1 µM, first compound 0.000316 µM", "value": 149, "unit": "%"}, {"measurement": "viability, T/C", "setting": "second compound 1 µM, first compound 0.001 µM", "value": 90.5, "unit": "%"}, {"measurement": "viability, T/C", "setting": "second compound 1 µM, first compound 0.00316 µM", "value": 87.6, "unit": "%"}, {"measurement": "viability, T/C", "setting": "second compound 1 µM, first compound 0.01 µM", "value": 79.2, "unit": "%"}, {"measurement": "viability, T/C", "setting": "second compound 1 µM, first compound 0.0316 µM", "value": 42.4, "unit": "%"}, {"measurement": "viability, T/C", "setting": "second compound 1 µM, first compound 0.1 µM", "value": 28.8, "unit": "%"}]}
